Data taken from patent US9469650B2, “Melampomagnolide B derivatives” (BOARD OF TRUSTEES OF THE UNIVERSITY OF ARKANSAS, priority 2013, dated 2016).

Key:
SNB-19 = assay: panel of 60 human tumor cell lines, growth inhibition (CNS Cancer); settings: SNB-19
SNB-75 = assay: as above; settings: SNB-75
HCC-2998 = assay: panel of 60 human tumor cell lines, growth inhibition (Colon Cancer); settings: HCC-2998
SW-620 = assay: as above; settings: SW-620
ACHN = assay: panel of 60 human tumor cell lines, growth inhibition (Renal Cancer)
CAKI-1 = assay: as above; settings: CAKI-1
UO-31 = assay: as above; settings: UO-31
HS 578T = assay: panel of 60 human tumor cell lines, growth inhibition (Breast Cancer); settings: HS 578T
T-47D = assay: as above; settings: T-47D
NCI-H226 = assay: panel of 60 human tumor cell lines, growth inhibition (Non-Small Cell Lung Cancer); settings: NCI-H226

Compound: C=C1C(=O)O[C@H]2[C@H]1CC/C(COC(=O)CCC(=O)N1CCC(C)CC1)=C\CC[C@@]1(C)O[C@@H]21 [JVM 2-70]
- Percent Growth (SNB-19; Log10 Concentration −7.0): 96%
- Percent Growth (SNB-19; Log10 Concentration −8.0): 95%
- GI50 (SNB-19; NCI five dose): 14 µM
- TGI (SNB-19; NCI five dose): 2.98E−5
- Percent Growth (SNB-75; Log10 Concentration −4.0): −85%
- Percent Growth (SNB-75; Log10 Concentration −5.0): 57%
- Percent Growth (SNB-75; Log10 Concentration −6.0): 80%
- Percent Growth (SNB-75; Log10 Concentration −7.0): 81%
- Percent Growth (SNB-75; Log10 Concentration −8.0): 72%
- GI50 (SNB-75; NCI five dose): 11.2 µM
- TGI (SNB-75; NCI five dose): 2.53E−5
- Percent Growth (HCC-2998; Log10 Concentration −4.0): −80%
- Percent Growth (HCC-2998; Log10 Concentration −5.0): 59%
- Percent Growth (HCC-2998; Log10 Concentration −6.0): 110%
- Percent Growth (HCC-2998; Log10 Concentration −7.0): 103%
- Percent Growth (HCC-2998; Log10 Concentration −8.0): 106%
- GI50 (HCC-2998; NCI five dose): 11.5 µM
- TGI (HCC-2998; NCI five dose): 2.65E−5
- Percent Growth (SW-620; Log10 Concentration −4.0): −80%
- Percent Growth (SW-620; Log10 Concentration −5.0): 1%
- Percent Growth (SW-620; Log10 Concentration −6.0): 79%
- Percent Growth (SW-620; Log10 Concentration −7.0): 97%
- Percent Growth (SW-620; Log10 Concentration −8.0): 99%
- GI50 (SW-620; NCI five dose): 2.33 µM
- TGI (SW-620; NCI five dose): 1.02E−5
- Percent Growth (ACHN; Log10 Concentration −4.0): −79%
- Percent Growth (ACHN; Log10 Concentration −5.0): 2%
- Percent Growth (ACHN; Log10 Concentration −6.0): 85%
- Percent Growth (ACHN; Log10 Concentration −7.0): 102%
- Percent Growth (ACHN; Log10 Concentration −8.0): 98%
- GI50 (ACHN; NCI five dose): 2.64 µM
- TGI (ACHN; NCI five dose): 1.05E−5
- Percent Growth (CAKI-1; Log10 Concentration −4.0): −93%
- Percent Growth (CAKI-1; Log10 Concentration −5.0): 4%
- Percent Growth (CAKI-1; Log10 Concentration −6.0): 88%
- Percent Growth (CAKI-1; Log10 Concentration −7.0): 95%
- Percent Growth (CAKI-1; Log10 Concentration −8.0): 90%
- GI50 (CAKI-1; NCI five dose): 2.83 µM
- TGI (CAKI-1; NCI five dose): 1.11E−5
- Percent Growth (UO-31; Log10 Concentration −4.0): −84%
- Percent Growth (UO-31; Log10 Concentration −5.0): 19%
- Percent Growth (UO-31; Log10 Concentration −6.0): 88%
- Percent Growth (UO-31; Log10 Concentration −7.0): 94%
- Percent Growth (UO-31; Log10 Concentration −8.0): 96%
- GI50 (UO-31; NCI five dose): 3.56 µM
- TGI (UO-31; NCI five dose): 1.53E−5
- Percent Growth (HS 578T; Log10 Concentration −4.0): 6%
- Percent Growth (HS 578T; Log10 Concentration −5.0): 70%
- Percent Growth (HS 578T; Log10 Concentration −6.0): 86%
- Percent Growth (HS 578T; Log10 Concentration −7.0): 92%
- Percent Growth (HS 578T; Log10 Concentration −8.0): 92%
- GI50 (HS 578T; NCI five dose): 20.4 µM
- TGI (HS 578T; NCI five dose): >1.00E−4
- Percent Growth (T-47D; Log10 Concentration −4.0): −48%
- Percent Growth (T-47D; Log10 Concentration −5.0): 34%
- Percent Growth (T-47D; Log10 Concentration −6.0): 94%
- Percent Growth (T-47D; Log10 Concentration −7.0): 94%
- Percent Growth (T-47D; Log10 Concentration −8.0): 86%
- GI50 (T-47D; NCI five dose): 5.45 µM
- TGI (T-47D; NCI five dose): 2.61E−5
- Percent Growth (NCI-H226; Log10 Concentration −4.0): −59%
- Percent Growth (NCI-H226; Log10 Concentration −5.0): 19%
- Percent Growth (NCI-H226; Log10 Concentration −6.0): 87%
- Percent Growth (NCI-H226; Log10 Concentration −7.0): 93%
- Percent Growth (NCI-H226; Log10 Concentration −8.0): 92%
- GI50 (NCI-H226; NCI five dose): 3.51 µM
- TGI (NCI-H226; NCI five dose): 1.75E−5
